Measurements reported in patent US20260043793A1, “MICROFLUIDIC CELL SPHEROIDS AND ORGANOIDS CULTURE INSERT FOR DISEASE MODELING AND SCREENING OF THERAPEUTICS” (APRICELL BIOTECHNOLOGY INC., priority 2022, published 2026).

How the values were obtained:
Assay type in all cases: cell-based
[1] = tested on: TMZ resistant U251 cell spheroids or organoids; test: Growth and invasion of TMZ resistant U251 spheroids in Collagen/HA ECM conditioned with Reelin; settings: for average invasion length: Collagen/HA matrix
Method: (§1) To investigate and compare the invasive behavior of TMZ resistant GBM cancer cells with non-resistant cell spheroids or organoids through the ECM hydrogel, we used TMZ resistant and non-resistant U251 cell lines to make cell spheroids or organoids in the device 10 or the sector 20. The method of U251 cell spheroids or organoid formation was similar to that disclosed above.
(§2) The effect of recombinant Reelin on viability of the U251 cell spheroids or organoids was studied. It was tested with 2 different concentrations of Reelin (1 and 100 nM) on cell spheroids or organoids in the device 10 or the sector 20. Moreover, to study the invasive behavior of the resistant and non-resistant cell spheroids or organoids, they were embedded in Collagen/HA hydrogel. The method of cell spheroids or organoid embedding in the hydrogel is similar to that disclosed in example 1. In this study, the effect of Reelin protein in combination with ECM hydrogel on invasiveness of the cell spheroids or organoids and their invasion length using Vimentin immunostaining and florescent microscopy respectively was studied.

[2] = tested on: TMZ non-resistant U251 cell spheroids or organoids; test: Growth and invasion of TMZ non-resistant U251 spheroids in Collagen/HA ECM conditioned with Reelin
Method: as §1, §2

vimentin surface marker = test: Vimentin immunostaining of U251 spheroids (resistant and non-resistant) in collagen/HA ECM; settings: 10 nm of Reelin, non-resistant in comparison to resistant spheroids
Excerpt: as §2, with “It was tested with 2 different concentrations of Reelin (1 and 100 nM) on cell spheroids or organoids in the device 10 or the sector 20.” left out
Level of surface vimentin expression of the tumor cells was measured as an indication of invasiveness of cell spheroids or organoids with the ECM matrix.

[3] = tested on: U251 cell spheroids or organoids; test: Effect of recombinant Reelin on viability of U251 spheroids (live-dead); settings: increasing Reelin concentration from 1 to 100 nM
Method: as §2
It is shown in live-dead fluorescent images by increasing the number of red cells stained with Propodeum iodide (PI) compared to the green cells stained with calcein AM after treatment with 100 nM Reelin.

[4] = 10 nM Reelin, in response to TMZ

Reelin: recombinant Reelin protein used alone or in combination with ECM hydrogel
average invasion length ([1]; 10 nM Reelin): around 400 μm | invasion length in Reelin conditioned matrix compared to normal matrix [1, 4]: reverse | average invasion length ([1]; 100 nM Reelin): drops significantly | inhibitory effect on growth (diameter) ([1]; higher concentrations of Reelin, day 3, compared with non-resistant): less | invasion length in Reelin treated matrix compared to normal ECM matrix [2, 4]: higher invasion length | size increase of spheroids over time (diameter) ([2]; each Reelin concentration, day 0 to 3, compared with resistant spheroids): more significant | growth of cell spheroids or organoids (diameter) ([2]; higher concentrations of Reelin, day 3): more inhibitory effect on the growth | invasion length ([2]; increasing concentrations of Reelin, Collagen/HA matrix): constantly increasing | fluorescent intensity index of the vimentin surface marker (vimentin surface marker): higher fluorescent intensity index | cell viability [3]: significant decrease in cell viability
